One compound from ChEMBL document CHEMBL5154652, “Design, synthesis and anti-hepatocellular carcinoma activity of 3-arylisoquinoline alkaloids” (Eur J Med Chem, 2022) can be followed below.

SMILES strings stand for the structures. Calls of active or inactive are those of the source. The calls are words filed in the database; no cut-off is given here.

Data set [1] has as its system HCCLM9. As to the kind of experiment: Inhibition of cell migration in human HCCLM9 cells at 1.25 to 5 uM after 24 hrs by transwell assay. Type of data set: functional, cell-based. The conditions noted are these: dose 1.25-5 µM.
For data set [2], the system named is HCCLM9. As to the kind of experiment: Antiproliferative activity against human HCCLM9 cells after 72 hrs by MTT assay. Format: functional, cell-based. The conditions noted are these: HCCLM9, 72 h.
Data set [3] can be described thus: Cmax in male Sprague-Dawley rat at 100 mg/kg, ip. Type of data set: ADME, organism-based. Also noted: dose 100 mg/kg, route ip. The note with it: in vivo.
Data set [4] concerns HCCLM9. The data set is described as follows: Induction of apoptosis in human HCCLM9 cells assessed as increase in Bax expression at 3.75 to 15 uM. Format: functional, cell-based. The note with it: dose 3.75-15 µM.
Data set [5] relates to A549. The data set is described as follows: Antiproliferative activity against human A549 cells after 72 hrs by MTT assay. Format: functional, cell-based. The note with it: A549, 72 h.
Data set [6] concerns HL-60. The data set is described as follows: Antiproliferative activity against human HL-60 cells after 72 hrs by MTT assay. The note with it: HL-60, 72 h. Format: functional, cell-based. For orientation: Tetrazolium assays rely on reduction of a dye to a coloured formazan, in cell work by metabolically active cells.
Data set [7] concerns SGC-7901. The data set is described as follows: Antiproliferative activity against human SGC-7901 cells after 72 hrs by MTT assay. Type of data set: functional, cell-based. The conditions noted are these: SGC-7901, 72 h.
Data set [8] deals with RKO. As to the kind of experiment: Antiproliferative activity against human RKO cells after 72 hrs by MTT assay. Type of data set: functional, cell-based.
In data set [9] the test system is Huh-7. The data set is described as follows: Induction of apoptosis in human Huh-7 cells assessed as increase in cleaved caspase-3 expression at 5 to 20 uM. Format: functional, cell-based. The conditions noted are these: dose 5-20 µM.
Data set [10] deals with HCCLM9. The data set is described as follows: Inhibition of cell invasion in human HCCLM9 cells at 1.25 to 5 uM after 24 hrs. Format: functional, cell-based. The conditions noted are these: dose 1.25-5 µM.
The test system of data set [11] is Huh-7. As to the kind of experiment: Induction of cell cycle arrest in human Huh-7 cells assessed as decrease in cell accumulation at S phase at 5 to 20 uM measured after 48 hrs by flow cytometry analysis. Format: functional, cell-based. The conditions noted are these: dose 5-20 µM.
Data set [12] concerns HCCLM9. The data set is described as follows: Induction of apoptosis in human HCCLM9 cells at 3.5 to 14 uM measured by Hoechst staining method. Format: functional, cell-based. The conditions noted are these: dose 3.5-14 µM.
Data set [13] concerns HCCLM9. The data set is described as follows: Induction of apoptosis in human HCCLM9 cells at 3.5 to 14 uM measured by Annexin V /propidium iodide staining method. Type of data set: functional, cell-based. The note with it: dose 3.5-14 µM.
Data set [14] has as its system Huh-7. The data set is described as follows: Induction of mitochondrial apoptosis in human Huh-7 cells assessed as inhibition of p-mTOR levels at 5 to 20 uM measured after 48 hrs by Western blot analysis. Type of data set: functional, cell-based. The note with it: dose 5-20 µM.
Data set [15] relates to Huh-7. As to the kind of experiment: Induction of mitochondrial apoptosis in human Huh-7 cells assessed as inhibition of p-Akt levels at 5 to 20 uM measured after 48 hrs by Western blot analysis. Format: functional, cell-based. The conditions noted are these: dose 5-20 µM. (In general: In western blotting, separated proteins are transferred to a membrane and probed.)
For data set [16], the target named is DNA topoisomerase 2-alpha (Homo sapiens) (UniProt P11388). The data set is described as follows: Inhibition of DNA topoisomerase 2 (unknown origin) at 25 uM measured by agar gel electrophoresis relative to control.
Chain of DNA topoisomerase 2-alpha (Homo sapiens) (P11388 whole entry): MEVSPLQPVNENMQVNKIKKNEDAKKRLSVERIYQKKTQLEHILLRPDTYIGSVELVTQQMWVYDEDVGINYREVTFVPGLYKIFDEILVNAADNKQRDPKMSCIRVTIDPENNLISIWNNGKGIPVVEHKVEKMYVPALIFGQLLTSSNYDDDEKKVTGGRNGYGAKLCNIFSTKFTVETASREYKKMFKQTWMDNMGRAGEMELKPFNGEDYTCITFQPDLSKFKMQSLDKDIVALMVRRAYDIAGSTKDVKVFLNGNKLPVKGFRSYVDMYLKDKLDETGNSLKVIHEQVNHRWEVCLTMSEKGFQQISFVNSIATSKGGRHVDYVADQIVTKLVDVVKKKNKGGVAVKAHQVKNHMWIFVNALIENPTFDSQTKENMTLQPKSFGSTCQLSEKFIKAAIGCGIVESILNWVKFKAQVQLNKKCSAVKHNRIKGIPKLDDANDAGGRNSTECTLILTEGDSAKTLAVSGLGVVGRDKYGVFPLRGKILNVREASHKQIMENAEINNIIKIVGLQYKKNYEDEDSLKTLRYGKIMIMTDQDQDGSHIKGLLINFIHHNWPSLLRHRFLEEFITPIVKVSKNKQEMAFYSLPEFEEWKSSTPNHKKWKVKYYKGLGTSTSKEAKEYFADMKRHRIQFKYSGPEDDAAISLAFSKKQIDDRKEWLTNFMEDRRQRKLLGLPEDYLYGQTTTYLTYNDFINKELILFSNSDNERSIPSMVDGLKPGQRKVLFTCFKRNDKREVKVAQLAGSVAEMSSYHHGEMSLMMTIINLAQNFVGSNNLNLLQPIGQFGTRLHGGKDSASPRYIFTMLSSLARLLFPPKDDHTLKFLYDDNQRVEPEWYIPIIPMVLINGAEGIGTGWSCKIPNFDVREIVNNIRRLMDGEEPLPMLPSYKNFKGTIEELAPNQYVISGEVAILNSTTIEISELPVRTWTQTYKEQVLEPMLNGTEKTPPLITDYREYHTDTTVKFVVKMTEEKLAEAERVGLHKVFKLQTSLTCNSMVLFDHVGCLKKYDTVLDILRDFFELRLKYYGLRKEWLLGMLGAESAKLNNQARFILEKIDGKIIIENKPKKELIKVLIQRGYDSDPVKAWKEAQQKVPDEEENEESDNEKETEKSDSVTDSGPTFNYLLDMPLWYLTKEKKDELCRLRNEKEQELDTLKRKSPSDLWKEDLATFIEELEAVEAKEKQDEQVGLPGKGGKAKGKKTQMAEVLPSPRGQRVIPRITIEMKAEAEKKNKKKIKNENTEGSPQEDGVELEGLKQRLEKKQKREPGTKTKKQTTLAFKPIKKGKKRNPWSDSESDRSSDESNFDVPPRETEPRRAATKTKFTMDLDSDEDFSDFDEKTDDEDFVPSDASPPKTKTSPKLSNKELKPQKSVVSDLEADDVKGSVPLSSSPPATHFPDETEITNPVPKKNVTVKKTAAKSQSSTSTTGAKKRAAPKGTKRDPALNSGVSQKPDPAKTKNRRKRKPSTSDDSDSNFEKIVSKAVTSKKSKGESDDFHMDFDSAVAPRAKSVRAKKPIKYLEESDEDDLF
For data set [17], the system named is Huh-7. As to the kind of experiment: Induction of apoptosis in human Huh-7 cells at 5 to 20 uM measured by Hoechst staining method. Format: functional, cell-based. The note with it: dose 5-20 µM.
Data set [18] is described as follows: Genotoxicity in human Huh-7 cells assessed as induction of DNA damage at 20 uM by comet assay. Format: toxicity, cell-based. The conditions noted are these: huh-7, 20 µM.
Data set [19] has as its system Huh-7. The data set is described as follows: Anticlonogenic activity in human Huh-7 cells at 2 to 8 uM measured by colony formation assay. Type of data set: functional, cell-based. The conditions noted are these: dose 2-8 µM.
Data set [20] relates to Huh-7. The data set is described as follows: Induction of cell cycle arrest in human Huh-7 cells assessed as decrease in cell accumulation at G0/G1 phase at 5 to 20 uM measured after 48 hrs by flow cytometry analysis. Type of data set: functional, cell-based. The conditions noted are these: dose 5-20 µM. On the technique in general: Flow cytometry measures light scatter and fluorescence of single cells or particles in a stream.

In data set [21] the test system is MDA-MB-231. The data set is described as follows: Antiproliferative activity against human MDA-MB-231 cells after 72 hrs by MTT assay. Format: functional, cell-based. The conditions noted are these: MDA-MB-231, 72 h.
Data set [22] has as its system HCCLM9. The data set is described as follows: Anticlonogenic activity in human HCCLM9 cells at 1.25 to 5 uM measured by colony formation assay. Format: functional, cell-based. The note with it: dose 1.25-5 µM.
Data set [23] deals with Huh-7. As to the kind of experiment: Induction of apoptosis in human Huh-7 cells at 5 to 20 uM measured by Annexin V /propidium iodide staining method. Type of data set: functional, cell-based. The conditions noted are these: dose 5-20 µM.

Usually IC50 stands for the concentration at which inhibition is half-maximal. What is called Cmax is the maximum level reached in the sampled fluid or tissue. Take `CNCc1cc2c(cc1-c1cc3ccc4c(c3cn1)OCO4)OCO2`: the inhibition result in data set [1], in data set [10] and in data set [16] was “Active” throughout. The IC50 turned out to be 6.83 µM in [2]; 36.3 µM in [5]; 59.1 µM in data set [6]; 30.8 µM in data set [7]; 47.8 µM in data set [8]; 19.9 µM in data set [21]. Further, the peak level in data set [3] (Cmax) was 8900 ng/mL. Further, the result in [4], in [9], in data set [11], in data set [12], in data set [13] and in data set [14] was Active. In addition, the outcome in data set [15], in data set [17], in [19], in data set [20], in data set [22] and in [23] was Active. Moreover, in data set [18], the Activity entry is on record as “Non-Toxic”.
